Reference: paper PMC10218498, “Exploring BenzylethoxyAryl Urea Scaffolds for Multitarget Immunomodulation Therapies” (International Journal of Molecular Sciences, 2023)
Like-named read-outs stand apart in the source and are kept apart here.

What was measured:
[1] = system: A-549 (pulmonary adenocarcinoma); test: MTT cell proliferation assay, A-549; type: cell-based, human; settings: for IC50: Homo sapiens, read-out: IC50 A-549; for SI (A-549) (IC50HEK293/A-549): selectivity index
Procedure: The 3-(4,5-dimethylthiazol-2-yl)-2,5-diphenyltetrazolium bromide (MTT; Sigma Chemical Co.) dye reduction assay in 96-well microplates was used. […] After that, the supernatant was discarded and replaced by 100 µL of DMSO to dissolve formazan crystals. The absorbance was then read at 550 nm by spectrophotometry. For all concentrations of compound, cell viability was expressed as the percentage of the ratio between the mean absorbance of treated cells and the mean absorbance of untreated cells. Three independent experiments were performed, and the IC50 values (i.e., concentration half inhibiting cell proliferation) were graphically determined using GraphPad Prism 4 software.

Jurkat T cells = test: MTT cell proliferation assay, Jurkat T cells; type: cell-based; settings: Homo sapiens, 48 h of treatment
Procedure: This assay allowed us to establish the corresponding IC50 values (expressed as the concentration, in μM, at which 50% of cell viability is achieved), shown in Table 1.
In 96-well plates, 5 × 10^3 (HT-29, MCF-7, A549, HMEC-1, Jurkat, and HEK-293) cells per well were incubated with serial dilutions of the tested compounds in a total volume of 100 μL of their respective growth media. The 3-(4,5-dimethylthiazol-2-yl)-2,5-diphenyltetrazolium bromide (MTT; Sigma Chemical Co.) dye reduction assay in 96-well microplates was used. After 2 days of incubation (37 °C, 5% CO2 in a humid atmosphere), 10 μL of MTT (5 mg/mL in phosphate-buffered saline, PBS) was added to each well, and the plate was incubated for a further 3 h (37 °C). After that, the supernatant was discarded and replaced by 100 µL of DMSO to dissolve formazan crystals. The absorbance was then read at 550 nm by spectrophotometry. For all concentrations of compound, cell viability was expressed as the percentage of the ratio between the mean absorbance of treated cells and the mean absorbance of untreated cells. Three independent experiments were performed, and the IC50 values (i.e., concentration half inhibiting cell proliferation) were graphically determined using GraphPad Prism 4 software.

PD-L1 = PD-L1 (Homo sapiens, UniProt Q9NZQ7); test: PD-L1 relative quantification by flow cytometry in MCF-7; type: cell-based; parameters: endogenous in cells; host or cells: MCF-7; settings: MCF-7, 20 µM, 24 h; for % PD-L1 Memb. / % PD-L1 Total: control = 100
Sequence of PD-L1 (Q9NZQ7 19-290): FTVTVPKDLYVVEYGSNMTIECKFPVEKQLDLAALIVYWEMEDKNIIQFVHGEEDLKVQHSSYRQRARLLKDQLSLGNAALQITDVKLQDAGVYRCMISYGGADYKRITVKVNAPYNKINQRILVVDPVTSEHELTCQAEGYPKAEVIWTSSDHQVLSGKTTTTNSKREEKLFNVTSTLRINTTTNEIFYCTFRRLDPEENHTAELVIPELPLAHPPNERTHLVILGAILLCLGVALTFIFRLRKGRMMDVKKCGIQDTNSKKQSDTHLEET
Procedure: In view of the good results obtained for these selected compounds, we decided to extend the study to a third cancer cell line, MCF-7 (Human breast cancer adenocarcinoma). First, we determined the IC50 values of the derivatives and their SI indexes (see Table 4). Then, we determined the effect of the selected compounds on the biological targets, PD-L1 and VEGFR-2, by flow cytometry. […] As usually, the assay was performed at a concentration of 20 µM for 24 h.
To study the effect of the compounds on every biological target in cancer cell lines, the compounds were used at 20 µM dose.
For the assay, 10^5 cells per well were incubated for 24 h with the corresponding dose of the tested compound in a total volume of 500 μL of their growth media.
On the one hand, to detect total PD-L1 and VEGFR-2, after the cell treatments, they were collected and fixed with 4% in PBS paraformaldehyde. After fixation, a treatment with 0.5% in PBS TritonTM X-100 was performed, and finally, cells were stained with FITC Mouse monoclonal Anti-Human VEGFR-2 (ab184903) and Alexa Fluor® 647 Rabbit monoclonal Anti-PD-L1 (ab215251).
On the other hand, to detect membrane PD-L1 and VEGFR-2, the process was the same, avoiding the treatment with 0.5% in PBS TritonTM X-100 step.

LAT = test: Immunoblotting of OT-1 CTL signaling proteins: LAT; type: cell-based, mice; settings: OT-1, 20 μM, 24 h
Text: (§1) We next studied the effect of our compounds on the signaling cascade downstream of the TCR. […] However, both the expression and phosphorylation of LCK were increased in response to all compounds. The effects on ZAP70 and LAT were more complex, with opposing effects on total protein expression versus phosphorylation. Thus, all compounds modulated signaling downstream of the TCR in a manner that is likely to impact T-cell activation and activity.
(§2) CD8+ cells were obtained from the inguinal, axillary, brachial, and mesenteric lymph nodes previously collected from OT-1 mice. Lymph node cells were isolated by mashing through a […] cell strainer. Cells were resuspended in IMDM cell media at a concentration of 0.3 million cells/mL. N4 ovalbumin peptide was added at a concentration of 10 nM, and cells were incubated for 48 h at 5% CO2, 37 °C. On day 2 from recollection, cells were pelleted at 1300 rpm for 5 min and washed with PBS to remove N4 peptide. The cell pellet was resuspended in fresh IMDM media in a new flask in a 0.3 million cells/mL and supplemented with IL-2 at 20 ng/mL. After incubation for a further 48 h (day 4), cells were re-seeded in fresh IMDM media at a concentration of 0.3 million cells/mL supplemented with IL-2 at 20 ng/mL. Cells were cultured for a further 48 h prior to use on day 6 in functional assays.
(§3) To study the effect of the compounds in the signaling pathway of CTLs, the compound was incubated for 24 h at 20 μM. After this time, cells were collected and washed twice in PBS and lysed in radioimmunoprecipitation assay (RIPA) lysis buffer (50 mM tris-HCl at pH 7.4, 150 mM sodium chloride, 5 mM EGTA, 0.1% SDS, 1% NP-40, and 1% deoxycholate) supplemented with a protease and phosphatase inhibitor cocktail (mini complete ULTRA Protease tablet and phosSTOP tablet from Roche, Basel, Switzerland). Lysates were clarified by high-speed centrifugation (17,000 rpm for 15 min at 4 °C). Protein concentration was measured using a Micro BCA Protein Assay (Thermo Scientific, Waltham, MA, USA), and 10 μg to 30 μg of total protein were supplemented with 2X SDS sample buffer [tris (pH 6.8), 20% glycerol, 5% SDS, b-mercaptoethanol, and bromophenol blue) and boiled at 95 °C for 5 min. […] Bound Ab was detected by incubation with anti-rabbit and anti-mouse horseradish peroxidase secondary Ab (Cell Signaling Technology) and visualized using the Bio-Rad ChemiDoc MP Imaging System.

ZAP70 = test: Immunoblotting of OT-1 CTL signaling proteins: ZAP70; type: cell-based, mice; settings: OT-1, 20 μM, 24 h
Text: as §1, §2, §3

Fyn = test: Immunoblotting of OT-1 CTL signaling proteins: FYN; type: cell-based, mice; settings: OT-1, 20 μM, 24 h
Text: as §1, §2, §3

LCK = test: Immunoblotting of OT-1 CTL signaling proteins: LCK; type: cell-based, mice; settings: OT-1, 20 μM, 24 h
Text: as §1, §2, §3

Row | IC50 ([1]; A549, MTT, 48 h of treatment) [µM] | IC50 (Jurkat T cells) [µM] | % PD-L1 Memb. (PD-L1) [%] | % PD-L1 Total (PD-L1) [%] | inhibition at 20 µM (PD-L1; MCF7, read-out: inhibition rate for total PD-L1) [%] | SMILES | SI (A-549) (IC50HEK293/A-549) [1] | LAT protein expression (Western blot quantification) (LAT) | pLAT protein expression (Western blot quantification) (LAT) | ZAP-70 protein expression (Western blot quantification) (ZAP70) | pZAP-70 protein expression (Western blot quantification) (ZAP70) | FYN protein expression (Western blot quantification) (Fyn) | LCK protein expression (Western blot quantification) (LCK) | pY394-LCK protein expression (Western blot quantification) (LCK) | pY505-LCK protein expression (Western blot quantification) (LCK) | IC50 ([1]; A549, 48 h) [µM]
1 | 6 ± 1 | > 100 | 88 ± 11 | 197 |  | Cc1c(COc2ccc(CN3CCCCC3C(=O)O)cc2Br)cccc1-c1ccccc1 (centres unmarked) [BMS-8, reference compound] | 10 |  |  |  |  |  |  |  |  | 
2 | 12 ± 1 | > 100 | 100 ± 7 | 57 ± 15 | ~40 | COc1ccc(COc2cccc(NC(=O)Nc3ccc(OC)cc3)c2)cc1 [Compound 11] | >9 | 85 | 10 | 38 | 77 | 109 | 168 | 184 | 157 | 
3 | 1.6 ± 0.8 | > 100 | 94 ± 12 | 87 ± 23 |  | COc1ccc(COc2cccc(NC(=O)Nc3ccc(Br)cc3)c2)cc1 [Compound 8] | >62 | 88 | 8 | 37 | 74 |  |  |  |  | 
4 | 3.4 ± 0.8 | > 100 | 81 ± 10 | 62 ± 15 |  | COc1ccc(COc2cccc(NC(=O)Nc3ccc(F)cc3)c2)cc1 [Compound 2] | >29 | 63 |  | 34 | 88 | 101 | 176 | 143 | 140 | 

Row | SMILES | IC50 ([1]; A549, MTT, 48 h of treatment) [µM] | IC50 (Jurkat T cells) [µM] | % PD-L1 Memb. (PD-L1) [%] | % PD-L1 Total (PD-L1) [%] | inhibition at 20 µM (PD-L1; MCF7, read-out: inhibition rate for total PD-L1) [%] | SI (A-549) (IC50HEK293/A-549) [1] | LAT protein expression (Western blot quantification) (LAT) | pLAT protein expression (Western blot quantification) (LAT) | ZAP-70 protein expression (Western blot quantification) (ZAP70) | pZAP-70 protein expression (Western blot quantification) (ZAP70) | FYN protein expression (Western blot quantification) (Fyn) | LCK protein expression (Western blot quantification) (LCK) | pY394-LCK protein expression (Western blot quantification) (LCK) | pY505-LCK protein expression (Western blot quantification) (LCK) | IC50 ([1]; A549, 48 h) [µM]
5 | COc1ccc(COc2cccc(NC(=O)Oc3ccccc3)c2)cc1 [Compound 14] |  | > 100 | 81 ± 8 | 85 ± 15 |  | >27 | 103 | 21 | 54 | 108 | 102 | 175 | 130 | 145 | 3.7 ± 0.5
